# Tested on: RSV (Long)
# Assay: RSV cytopathic effect (CPE)-based viral replication assay
# Assay type: cell-based, respiratory syncytial virus (RSV)
# Settings: HEp-2 cells infected with RSV Long at MOI 0.015; 3 days at 37° C.; cell viability by CellTiter-Glo luminescence; read-out: EC50 (nm)
# Method in brief: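 HEp-2 cells, 2,500 per well in DMEM with 2% heat-inactivated FBS, treated with 10-point compound dilutions and infected with RSV Long at MOI 0.015. After 3 days at 37 °C, 5% CO2, viability read by CellTiter-Glo luminescence; EC50 derived from CPE data.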
row,EC50,Compound
1,5.7 nM,CS(=O)(=O)N1CC2(C1)C(=O)N(Cc1ncc3ccccc3c1CF)c1ccccc12 [Example 59]
2,4.5 nM,COC(=O)NC1CC2(C1)C(=O)N(Cc1ncc3ccccc3c1-c1ccc(C#N)nc1)c1ccccc12 (centres unmarked) [Example 84-2]
3,15 nM,O=C1CC(c2c(Cn3c(=O)n(C4CC4)c4ccncc43)ncc3ccccc23)CN1 (centres unmarked) [Example 2019]

# Same assay, conditions: human respiratory syncytial virus, HEp-2, 72 h, HEp-2 cells infected with RSV Long at MOI 0.015; 3 days at 37° C.; cell viability by CellTiter-Glo luminescence; read-out: EC50 (nm)
row,Compound,EC50
1,"NCCCC(=O)N1CCC2(CC1)C(=O)N(Cc1ncc3ccccc3c1-c1cccnc1)c1cnccc12 [Example 142, 1-(4-aminobutanoyl)-1′-((4-(pyridin-3-yl)isoquinolin-3-yl)methyl)spiro[piperidine-4,3′-pyrrolo[2,3-c]pyridin]-2′(1′H)-one]",5.8 nM
2,NC1(CNC(=O)N2CC3(C2)C(=O)N(Cc2ncc4ccccc4c2-c2cncc(F)c2)c2ccccc23)CC1 [Example 2004],3 nM
3,NC1(C(=O)N2CCC3(CC2)C(=O)N(Cc2ncc4ccccc4c2-c2cccnc2)c2cnccc23)CC1 [Example 137],5.4 nM
4,NC1(C(=O)N2CCC3(CC2)C(=O)N(Cc2ncc4ccccc4c2-c2nccs2)c2cnccc23)CC1 [Example 2012],380 nM
5,"O=c1n(Cc2ncc3ccccc3c2CCCCO)c2cnccc2n1C1CC1 [Example 1c, 1-cyclopropyl-3-((4-(4-hydroxybutyl)isoquinolin-3-yl)methyl)-1H-imidazo[4,5-c]pyridin-2(3H)-one]",13 nM
6,NC1(C(=O)N2CCC3(CC2)C(=O)N(Cc2ncc4ccccc4c2-c2cn[nH]c2)c2cnccc23)CC1 [Example 2030],5.7 nM
7,"COC(=O)N1CC2(C1)C(=O)N(Cc1ncc3ccccc3c1-c1ccc(S(N)(=O)=O)cc1)c1ccccc12 [Example 99, Methyl 2′-oxo-1′-((4-(4-sulfamoylphenyl)isoquinolin-3-yl)methyl)spiro[azetidine-3,3′-indoline]-1-carboxylate]",0.75 nM
8,"NC1(NC(=O)N2CC3(C2)C(=O)N(Cc2ncc4ccccc4c2-c2cccnc2)c2ccccc23)CC1 [Example 155, N-(1-aminocyclopropyl)-2′-oxo-1′-((4-(pyridin-3-yl)isoquinolin-3-yl)methyl)spiro[azetidine-3,3′-indoline]-1-carboxamide]",2 nM
9,"CS(=O)(=O)N1CCC2(CC1)C(=O)N(Cc1ncc3cc(Cl)ccc3c1-c1cncs1)c1ccccc12 [Example 169b, 1-((7-chloro-4-(thiazol-5-yl)isoquinolin-3-yl)methyl)-1′-(methylsulfonyl)spiro[indoline-3,4′-piperidin]-2-one]",1.3 nM
10,"CNC(=O)N1CC2(C1)C(=O)N(Cc1ncc3ccccc3c1CCCCO)c1ccccc12 [Example 38, 1′-((4-(4-hydroxybutyl)isoquinolin-3-yl)methyl)-N-methyl-2′-oxospiro[azetidine-3,3′-indoline]-1-carboxamide]",6.4 nM
11,NC(=O)c1ccc(-c2c(CN3C(=O)C4(CCN(C(=O)[C@H]5CCCN5)CC4)c4ccncc43)ncc3ccccc23)cn1 [Example 2013],6.6 nM
12,NC(=O)c1ccc(-c2c(CN3C(=O)C4(CN(C(=O)C5(N)CC5)C4)c4ccccc43)ncc3ccccc23)cn1 [Example 2008],15 nM
13,"N[C@H]1CCN(c2ccc3c(CCCCO)c(Cn4c(=O)n(C5CC5)c5ccncc54)ncc3c2)C1 [Example 33, (S)-3-((7-(3-aminopyrrolidin-1-yl)-4-(4-hydroxybutyl)isoquinolin-3-yl)methyl)-1-cyclopropyl-1H-imidazo[4,5-c]pyridin-2(3H)-one]",1300 nM
14,CS(=O)(=O)N1CCC2(CC1)C(=O)N(Cc1ncc3ccccc3c1-c1ccncc1)c1cnccc12 [Example 2014],2.6 nM
15,NCC(N1CC2(C1)C(=O)N(Cc1ncc3ccccc3c1-c1cccnc1)c1ccccc12)C(F)(F)F (centres unmarked) [Example 2037],0.82 nM
16,"COC(=O)N1CCC(n2c(=O)n(Cc3ncc4ccccc4c3CCCCO)c3cccc(Cl)c32)CC1 [Example 16, Methyl 4-(7-chloro-3-((4-(4-hydroxybutyl)isoquinolin-3-yl)methyl)-2-oxo-2,3-dihydro-1H-benzo[d]imidazol-1-yl)piperidine-1-carboxylate]",19 nM
17,"COC(=O)N1CCC(n2c(=O)n(Cc3ncc4cc(F)ccc4c3CCCCO)c3cnccc32)CC1 [Example 7b, Methyl 4-(3-((7-fluoro-4-(4-hydroxybutyl)isoquinolin-3-yl)methyl)-2-oxo-2,3-dihydro-1H-imidazo[4,5-c]pyridin-1-yl)piperidine-1-carboxylate]",11 nM

# Second part, the molecule after the results:
row,EC50,Compound
1,5.5 nM,"CS(=O)(=O)Nc1ccc(-c2c(CN3C(=O)C4(CN(C(=O)C5(N)CC5)C4)c4ccccc43)ncc3ccccc23)cc1 [Example 114c, N-(4-(3-((1-(1-aminocyclopropanecarbonyl)-2′-oxospiro[azetidine-3,3′-indolin]-1′-yl)methyl)isoquinolin-4-yl)phenyl)methanesulfonamide]"
2,0.67 nM,"COC(=O)N1CC2(C1)C(=O)N(Cc1ncc3ccccc3c1-c1cccnc1)c1ccccc12 [Example 92b, Methyl 2′-oxo-1′-((4-(pyridin-3-yl)isoquinolin-3-yl)methyl)spiro[azetidine-3,3′-indoline]-1-carboxylate]"
3,3.8 nM,"CC(C)(O)C(=O)N1CC2(C1)C(=O)N(Cc1ncc3ccccc3c1-c1cccnc1)c1ccccc12 [Example 118, 1-(2-hydroxy-2-methylpropanoyl)-1′-((4-(pyridin-3-yl)isoquinolin-3-yl)methyl)spiro[azetidine-3,3′-indolin]-2′-one]"
4,9.8 nM,"NC1(C(=O)N2CC3(C2)C(=O)N(Cc2ncc4ccccc4c2-c2ccc(S(N)(=O)=O)nc2)c2ccccc23)CC1 [Example 124, 5-(3-((1-(1-Aminocyclopropanecarbonyl)-2′-oxospiro[azetidine-3,3′-indolin]-1′-yl)methyl)isoquinolin-4-yl)pyridine-2-sulfonamide]"
5,20 nM,"NC1(C(=O)N2CC3(C2)C(=O)N(Cc2ncc4ccccc4c2-c2cncc(F)c2)c2ccccc23)CC1 [Example 94, 1-(1-aminocyclopropanecarbonyl)-1′-((4-(5-fluoropyridin-3-yl)isoquinolin-3-yl)methyl)spiro[azetidine-3,3′-indolin]-2′-one]"
6,6.4 nM,"N#Cc1ccc(-c2c(CN3C(=O)C4(CCN(C(=O)C5(N)CC5)CC4)c4ccncc43)ncc3ccccc23)cn1 [Example 65, 5-(3-((1-(1-aminocyclopropanecarbonyl)-2′-oxospiro[piperidine-4,3′-pyrrolo[2,3-c]pyridin]-1′(2′H)-yl)methyl)isoquinolin-4-yl)picolinonitrile]"
7,1.9 nM,CS(=O)(=O)N1CCC2(CC1)C(=O)N(Cc1ncc3ccccc3c1-c1cncs1)c1cnccc12 [Example 98c]
8,2.6 nM,CS(=O)(=O)N1CCC2(CC1)C(=O)N(Cc1ncc3cc(F)ccc3c1-c1cccnc1)c1cnccc12 [Example 2034]
9,18 nM,"NC1(C(=O)N2CC3(C2)C(=O)N(Cc2ncc4ccccc4c2-c2cccnc2)c2ccccc23)CC1 [Example 147, 1-(1-aminocyclopropanecarbonyl)-1′-((4-(pyridin-3-yl)isoquinolin-3-yl)methyl)spiro[azetidine-3,3′-indolin]-2′-one]"
10,2.4 nM,"O=C(OC1CC1)N1CCC(n2c(=O)n(Cc3ncc4ccccc4c3CCCCO)c3cnccc32)CC1 [Example 35, cyclopropyl 4-(3-((4-(4-hydroxybutyl)isoquinolin-3-yl)methyl)-2-oxo-2,3-dihydro-1H-imidazo[4,5-c]pyridin-1-yl)piperidine-1-carboxylate]"
11,42 nM,"COCCN1CC2(C1)C(=O)N(Cc1ncc3ccccc3c1-c1ccc(F)nc1)c1ccccc12 [Example 85c, 1′-((4-(6-Fluoropyridin-3-yl)isoquinolin-3-yl)methyl)-1-(2-methoxyethyl)spiro[azetidine-3,3′-indolin]-2′-one]"
12,2.4 nM,"COC(=O)N1CCC(n2c(=O)n(Cc3ncc4cc(CN)ccc4c3CCCCO)c3cnccc32)CC1 [Example 24, Methyl 4-(3-((7-(aminomethyl)-4-(4-hydroxybutyl)isoquinolin-3-yl)methyl)-2-oxo-2,3-dihydro-1H-imidazo[4,5-c]pyridin-1-yl)piperidine-1-carboxylate]"
13,20 nM,"O=c1n(Cc2ncc3ccccc3c2CCCCO)c2cnccc2n1-c1ccc(F)cc1 [Example 4c, 1-(4-fluorophenyl)-3-((4-(4-hydroxybutyl)isoquinolin-3-yl)methyl)-1H-imidazo[4,5-c]pyridin-2(3H)-one]"
14,6.8 nM,"COC(=O)N1CC2(C1)C(=O)N(Cc1ncc3ccccc3c1CCCCO)c1ccccc12 [Example 28b, Methyl 1′-((4-(4-hydroxybutyl)isoquinolin-3-yl)methyl)-2′-oxospiro[azetidine-3,3′-indoline]-1-carboxylate]"
15,2.8 nM,"CC(=O)N1CCC2(CC1)C(=O)N(Cc1ncc3ccccc3c1-c1cccnc1)c1cnccc12 [Example 146b, 1-Acetyl-1′-((4-(pyridin-3-yl)isoquinolin-3-yl)methyl)spiro[piperidine-4,3′-pyrrolo[2,3-c]pyridin]-2′(1′H)-one]"
16,27 nM,NC(=O)c1ccc(-c2c(CN3C(=O)C4(CCN(C(=O)[C@@H]5CCCN5)CC4)c4ccncc43)ncc3ccccc23)cn1 [Example 2033]

# Same assay, conditions: human respiratory syncytial virus, HEp-2, 72 h, read-out: EC50 (nm)
row,Compound,EC50
1,"CC(=O)N1CC2(C1)C(=O)N(Cc1ncc3ccccc3c1-c1cccnc1)c1ccccc12 [Example 153, 1-acetyl-1′-((4-(pyridin-3-yl)isoquinolin-3-yl)methyl)spiro[azetidine-3,3′-indolin]-2′-one]",5.5 nM
2,"COC(=O)N1CCC2(CC1)C(=O)N(Cc1ncc3ccccc3c1-c1ccc(C#N)nc1)c1cnccc12 [Example 13, Methyl 1′-((4-(6-cyanopyridin-3-yl)isoquinolin-3-yl)methyl)-2′-oxo-1′,2′-dihydrospiro[piperidine-4,3′-pyrrolo[2,3-c]pyridine]-1-carboxylate]",3 nM

# — patent US20190002436A1, “RESPIRATORY SYNCYTIAL VIRUS INHIBITORS” (MEDIVIR AB, priority 2015, published 2019)
